{
  "source": "patent US20060051321A1",
  "about": "“Biological compositions and methods for treatment of testicular cancer” (Ultra Biotech Limited, priority 2003, published 2006)",
  "assay_type_in_all_cases": "in vivo",
  "key": {"[1]": {"tested_on": "testicular cancer cell line CRL-1973", "experiment": "Survival in Wistar rat model of human testicular cancer (Example 9)", "conditions": "for Number of live animals remaining in the groups after 30 days of treatment: 30 rats per group", "method": "The survival time of mice after tumor injection and treatment was studied.\n(§1) The biological composition comprising 10^8 cells per ml of activated and conditioned yeast cells of the strain Saccharomyces cerevisiae Hansen strain AS2.182 was prepared by the methods described in Section 5.1 and subsections therein.\nThe animals were prepared in a similar manner as described in Section 8.1.\nAfter injection with CRL-1973 cells, the rats were divided into 4 experimental groups of ten rats per group and one control group. The four experimental groups were triplicated (ie., using a total of 120 rats in the experimental groups). In group 2AY, the rats received 1.2 ml of the biological composition once per day. In group 2NY, the rats received 1.2 ml of the untreated yeast cells once per day. […] In group 2CK1, the rats received 1.2 ml of physiological saline once per day.\n(§2) The rats received the biological compositions, untreated yeast cells, VLB or saline on the same day as the tumor cells were transplanted. The rats in group 2CK2 also started receiving saline on the same day as the other four groups. The biological compositions, untreated yeast cells and saline were administered orally by a feeding tube and the VLB by intravenous injection for 30 consecutive days. The mice were observed over 6 months from the day of tumor inoculation and survival was recorded. The weight of the mice and the weight of the tumor were determined by standard techniques."}, "[2]": {"tested_on": "testicular cancer cell line CRL-1973", "experiment": "Tumor growth in Wistar rat model of human testicular cancer (Example 8)", "conditions": "rats injected s.c. with CRL-1973 cells; 30 consecutive days of treatment; sacrificed on 31st day from tumor inoculation", "excerpt": "The following example illustrates the benefit of a biological composition of the invention in a Wistar rat model of human testicular cancer. The growth of the tumor in the rats was studied.\n(§3) Numerous animal studies have reported the use of Wistar rat models in the study of human testicular cancer. There is very high success rate for transplanting testicular tumor CRL-1973 cells in rats. The testicular tumor cell line CRL-1973 can be ordered from the American Type Culture Collection.\nas §1\nThe animals used for the experiments were male Wistar rats (obtainable from the Chinese Academy of Military Medical Sciences, Beijing, China). About 2×10^7 viable tumor cells of the testicular cancer cell line CRL-1973 (obtainable from the Cancer Institute, Chinese Academy of Medical Sciences, Beijing, China) in about 0.2 ml culture suspension was injected subcutaneously into the animals. […]\nThe rats received the biological compositions, untreated yeast cells, VLB or saline on the same day as the tumor cells were transplanted. […] The weight of the rats and the weight of the tumor were determined by standard techniques."}, "[3]": {"tested_on": "testicular cancer cell line HTB-104", "experiment": "Survival in kun ming mouse model of human testicular cancer (Example 7)", "conditions": "for Number of live animals remaining in the groups after 30 days of treatment: 30 mice per group", "method": "The following example illustrates the benefit of a biological composition of the invention in a kun ming mouse model of human testicular cancer. The survival time of rats after tumor injection and treatment was studied.\nThe biological composition comprising 10^8 cells per ml of activated and conditioned yeast cells of the strain Saccharomyces cerevisiae Hansen strain AS2. 182 was prepared by the methods described in Section 5.1 and subsections therein.\nThe animals were prepared in a similar manner as described in Section 6.1.\nAfter injection with HTB-104 cells, the mice were divided into 4 experimental groups of ten mice per group and one control group. The four experimental groups were triplicated (i.e., using a total of 120 mice in the experimental groups). In group 2AY, the mice received 0.5 ml of the biological composition once per day. In group 2NY, the mice received 0.5 ml of the untreated yeast cells once per day. In group 2BLM, the mice were injected subcutaneously with 0.8 mg of bleomycin (BLM) per kg body weight per day. In group 2CK1, the mice received 0.5 ml of physiological saline once per day.\nas §2, with “The mice” for “The rats”, “cells, BLM” for “cells, VLB”, “cells or” for “cells and”, “the BLM” for “the VLB”, “by subcutaneous” for “by intravenous”"}, "[4]": {"tested_on": "testicular cancer cell line HTB-104", "experiment": "Tumor growth in kun ming mouse model of human testicular cancer (Example 6)", "conditions": "mice injected s.c. with HTB-104 cells; 30 consecutive days of treatment; sacrificed on 31st day from tumor inoculation", "excerpt": "The following example illustrates the benefit of a biological composition of the invention in a kun ming mouse model of human testicular cancer. The growth of tumors in the mice was studied.\nas §3, with “kun ming mouse” for “Wistar rat”, “almost a 100%” for “very high”, “HTB-104” for “CRL-1973”, “mice.” for “rats.”\nas §1\nThe animals used for the experiments were kun ming mouse (obtainable from the Chinese Academy of Military Medical Sciences, Beijing, China). Only males 20 to 22 gram in body weight, 6 to […] old were used. […]\nThe mice received the biological compositions, untreated yeast cells, BLM or saline on the same day as the tumor cells were transplanted. […] On the 31st day from tumor inoculation, the mice were sacrificed and the weight of the mice and the weight of the tumor were determined by standard techniques."}, "[5]": {"conditions": "0 month after cessation of treatment"}, "[6]": {"conditions": "1 month after cessation of treatment"}, "[7]": {"conditions": "2 months after cessation of treatment"}, "[8]": {"conditions": "3 months after cessation of treatment"}, "[9]": {"conditions": "4 months after cessation of treatment"}, "[10]": {"conditions": "5 months after cessation of treatment"}, "[11]": {"conditions": "6 months after cessation of treatment"}},
  "data": [
    {"molecule": "CC[C@]1(O)C[C@@H]2CN(CCc3c([nH]c4ccccc34)[C@@](C(=O)OC)(c3cc4c(cc3OC)N(C)[C@H]3[C@@](O)(C(=O)OC)[C@H](OC(C)=O)[C@]5(CC)C=CCN6CC[C@]43[C@@H]65)C2)C1", "note": "[VLB, vinblastine]", "values": [
      {"measurement": "Number of live animals remaining in the groups after 30 days of treatment", "setting": "[1]; [5]", "result": 30},
      {"measurement": "Number of live animals remaining in the groups after 30 days of treatment", "setting": "[1]; [6]", "result": 30},
      {"measurement": "Number of live animals remaining in the groups after 30 days of treatment", "setting": "[1]; [7]", "result": 22},
      {"measurement": "Number of live animals remaining in the groups after 30 days of treatment", "setting": "[1]; [8]", "result": 9},
      {"measurement": "Number of live animals remaining in the groups after 30 days of treatment", "setting": "[1]; [9]", "result": 1},
      {"measurement": "Number of live animals remaining in the groups after 30 days of treatment", "setting": "[1]; [10]", "result": 0},
      {"measurement": "Number of live animals remaining in the groups after 30 days of treatment", "setting": "[1]; [11]", "result": 0},
      {"measurement": "death of all animals, time from injection of tumor cells", "setting": "[1]; rats bearing CRL-1973 cells, 30 days of treatment", "result": "all died after five months"},
      {"measurement": "mean weight of tumor nodules and standard deviation", "setting": "[1]; rats that survived, observed over 6 months from tumor inoculation", "result": "all animals dead"},
      {"measurement": "mean weight of tumor nodules and standard deviation", "setting": "[2]", "result": "2.67 ± 2.65", "unit": "g"}
    ]},
    {"molecule": "bleomycin [BLM]", "values": [
      {"measurement": "Number of live animals remaining in the groups after 30 days of treatment", "setting": "[3]; [5]", "result": 30},
      {"measurement": "Number of live animals remaining in the groups after 30 days of treatment", "setting": "[3]; [6]", "result": 27},
      {"measurement": "Number of live animals remaining in the groups after 30 days of treatment", "setting": "[3]; [7]", "result": 16},
      {"measurement": "Number of live animals remaining in the groups after 30 days of treatment", "setting": "[3]; [8]", "result": 0},
      {"measurement": "Number of live animals remaining in the groups after 30 days of treatment", "setting": "[3]; [9]", "result": 0},
      {"measurement": "Number of live animals remaining in the groups after 30 days of treatment", "setting": "[3]; [10]", "result": 0},
      {"measurement": "Number of live animals remaining in the groups after 30 days of treatment", "setting": "[3]; [11]", "result": 0},
      {"measurement": "death of all animals, time from injection of tumor cells", "setting": "[3]; mice bearing HTB-104 cells, 30 days of treatment", "result": "all died after three months"},
      {"measurement": "mean weight of tumor nodules and standard deviation", "setting": "[3]; mice that survived, observed over 6 months from tumor inoculation", "result": "all animals dead"},
      {"measurement": "mean weight of tumor nodules and standard deviation", "setting": "[4]", "result": "1.13 ± 0.65", "unit": "mg"}
    ]}
  ]
}
